Measured values reported in patent US9999619B2, “Piperidin-4-yl azetidine derivatives as JAK1 inhibitors” (Incyte Corporation, priority 2010, dated 2018).

Experiments:
Assay type in all cases: biochemical
[1] = target: human JAK1 (a.a. 837-1142); experiment: In vitro JAK kinase assay (HTRF, phosphorylation of a biotinylated peptide), JAK1; settings: ratio of JAK2 IC50 to JAK1 IC50, measured at 1 mM ATP
Outline: (§1)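 Phosphorylation of a biotinylated peptide by purified His-tagged JAK catalytic domains (insect-cell baculovirus expression) ran 1 hr at room temperature. After stopping with EDTA, Eu-Py20 and SA-APC were bound for 40 minutes and HTRF measured.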

[2] = target: human JAK1 (a.a. 837-1142) (Homo sapiens, UniProt P23458); experiment: as above; settings: measured at 1 mM ATP
Outline: as §1

[3] = target: Jak2 (a.a. 828-1132) (Homo sapiens (Human), UniProt O60674); experiment: In vitro JAK kinase assay (HTRF, phosphorylation of a biotinylated peptide), JAK2; settings: measured at 1 mM ATP
Outline: as §1

Chain of Jak2 (a.a. 828-1132) (O60674 828-1132): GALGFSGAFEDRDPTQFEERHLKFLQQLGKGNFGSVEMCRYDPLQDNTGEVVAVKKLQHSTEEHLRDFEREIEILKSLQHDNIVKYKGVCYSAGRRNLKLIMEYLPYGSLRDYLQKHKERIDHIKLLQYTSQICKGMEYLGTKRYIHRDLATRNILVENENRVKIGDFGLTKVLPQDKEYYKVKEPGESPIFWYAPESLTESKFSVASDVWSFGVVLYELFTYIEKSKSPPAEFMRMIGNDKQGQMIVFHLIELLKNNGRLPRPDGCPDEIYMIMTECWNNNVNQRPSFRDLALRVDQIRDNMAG

| SMILES | IC50 Ratio JAK2/JAK1 [1] | IC50 [2] | IC50 [3] |
| --- | --- | --- | --- |
| N#CCC1(n2ccc(-c3ncnc4[nH]ccc34)c2)CN(C2CCN(C(=O)c3ccc(C(F)(F)F)c(F)c3)CC2)C1 [Example 267, {1-{1-[3-fluoro-4-(trifluoromethyl)benzoyl]piperidin-4-yl}-3-[3-(7H-pyrrolo[2,3-d]pyrimidin-4-yl)-1H-pyrrol-1-yl]azetidin-3-yl}acetonitrile] | 6.6 | 5 to 20 nM | 50 to 100 nM |
| N#CCC1(n2ccc(-c3ncnc4[nH]ccc34)c2)CN(C2CCN(C(=O)c3cccc(C(F)(F)F)c3)CC2)C1 [Example 268, (3-[3-(7H-pyrrolo[2,3-d]pyrimidin-4-yl)-1H-pyrrol-1-yl]-1-{1-[3-(trifluoromethyl)benzoyl]piperidin-4-yl}azetidin-3-yl)acetonitrile] | 3.1 | 5 to 20 nM | 10 to 50 nM |
| N#CCC1(n2ccc(-c3ncnc4[nH]ccc34)c2)CN(C2CCN(C(=O)c3ccc(F)c(C(F)(F)F)c3)CC2)C1 [Example 275, {1-{1-[4-fluoro-3-(trifluoromethyl)benzoyl]piperidin-4-yl}-3-[3-(7H-pyrrolo[2,3-d]pyrimidin-4-yl)-1H-pyrrol-1-yl]azetidin-3-yl}acetonitrile] | 3.1 | 5 to 20 nM | 10 to 50 nM |
| N#CCC1(n2ccc(-c3ncnc4[nH]ccc34)c2)CN(C2CCN(C(=O)c3cccc(F)c3F)CC2)C1 [Example 276, {1-[1-(2,3-difluorobenzoyl)piperidin-4-yl]-3-[3-(7H-pyrrolo[2,3-d]pyrimidin-4-yl)-1H-pyrrol-1-yl]azetidin-3-yl}acetonitrile] | 4.0 | ≤ 5 nM | ≤ 10 nM |
| N#CCC1(n2ccc(-c3ncnc4[nH]ccc34)c2)CN(C2CCN(C(=O)c3c(F)cccc3F)CC2)C1 [Example 279, {1-[1-(2,6-difluorobenzoyl)piperidin-4-yl]-3-[3-(7H-pyrrolo[2,3-d]pyrimidin-4-yl)-1H-pyrrol-1-yl]azetidin-3-yl}acetonitrile] | 4.1 | ≤ 5 nM | ≤ 10 nM |
| N#CCC1(n2ccc(-c3ncnc4[nH]ccc34)c2)CN(C2CCN(C(=O)c3cccc(OC(F)(F)F)c3F)CC2)C1 [Example 281, {1-{1-[2-fluoro-3-(trifluoromethoxy)benzoyl]piperidin-4-yl}-3-[3-(7H-pyrrolo[2,3-d]pyrimidin-4-yl)-1H-pyrrol-1-yl]azetidin-3-yl}acetonitrile] | 10.0 | ≤ 5 nM | 10 to 50 nM |
| N#CCC1(n2ccc(-c3ncnc4[nH]ccc34)c2)CN(C2CCN(C(=O)c3ccc(O)c(C(F)(F)F)c3)CC2)C1 [Example 282, {1-{1-[4-hydroxy-3-(trifluoromethyl)benzoyl]piperidin-4-yl}-3-[3-(7H-pyrrolo[2,3-d]pyrimidin-4-yl)-1H-pyrrol-1-yl]azetidin-3-yl}acetonitrile] | 3.4 | 5 to 20 nM | 10 to 50 nM |
| Cc1nc(C(F)(F)F)ccc1NC(=O)N1CCC(N2CC(CC#N)(n3ccc(-c4ncnc5[nH]ccc45)c3)C2)CC1 [Example 285, 4-{3-(cyanomethyl)-3-[3-(7H-pyrrolo[2,3-d]pyrimidin-4-yl)-1H-pyrrol-1-yl]azetidin-1-yl}-N-[2-methyl-6-(trifluoromethyl)pyridin-3-yl]piperidine-1-carboxamide] | 5.7 | 5 to 20 nM | 10 to 50 nM |
| COc1ccccc1NC(=O)N1CCC(N2CC(CC#N)(n3ccc(-c4ncnc5[nH]ccc45)c3)C2)CC1 [Example 288, 4-{3-(cyanomethyl)-3-[3-(7H-pyrrolo[2,3-d]pyrimidin-4-yl)-1H-pyrrol-1-yl]azetidin-1-yl}-N-(2-methoxyphenyl)piperidine-1-carboxamide] | 9.0 | ≤ 5 nM | ≤ 10 nM |
| N#CCC1(n2ccc(-c3ncnc4[nH]ccc34)c2)CN(C2CCN(C(=O)Nc3ncccc3C(F)(F)F)CC2)C1 [Example 290, 4-{3-(cyanomethyl)-3-[3-(7H-pyrrolo[2,3-d]pyrimidin-4-yl)-1H-pyrrol-1-yl]azetidin-1-yl}-N-[3-(trifluoromethyl)pyridin-2-yl]piperidine-1-carboxamide] | 3.9 | 20 to 30 nM | > 100 nM |

Further lines, results first:

| IC50 Ratio JAK2/JAK1 [1] | IC50 [2] | IC50 [3] | SMILES |
| --- | --- | --- | --- |
| 5.0 | ≤ 5 nM | 10 to 50 nM | N#CCC1(n2ccc(-c3ncnc4[nH]ccc34)c2)CN(C2CCN(C(=O)c3cc(OC(F)(F)F)ccc3F)CC2)C1 [Example 269, {1-{1-[2-fluoro-5-(trifluoromethoxy)benzoyl]piperidin-4-yl}-3-[3-(7H-pyrrolo[2,3-d]pyrimidin-4-yl)-1H-pyrrol-1-yl]azetidin-3-yl}acetonitrile] |
| 6.1 | ≤ 5 nM | ≤ 10 nM | N#CCC1(n2ccc(-c3ncnc4[nH]ccc34)c2)CN(C2CCN(C(=O)c3c(F)ccc(F)c3F)CC2)C1 [Example 270, {3-[3-(7H-pyrrolo[2,3-d]pyrimidin-4-yl)-1H-pyrrol-1-yl]-1-[1-(2,3,6-trifluorobenzoyl)piperidin-4-yl]azetidin-3-yl}acetonitrile] |
| 7.8 | ≤ 5 nM | 10 to 50 nM | N#CCC1(n2ccc(-c3ncnc4[nH]ccc34)c2)CN(C2CCN(C(=O)c3cccs3)CC2)C1 [Example 271, {3-[3-(7H-pyrrolo[2,3-d]pyrimidin-4-yl)-1H-pyrrol-1-yl]-1-[1-(2-thienylcarbonyl)piperidin-4-yl]azetidin-3-yl}acetonitrile] |
| 6.5 | 5 to 20 nM | 10 to 50 nM | N#CCC1(n2ccc(-c3ncnc4[nH]ccc34)c2)CN(C2CCN(C(=O)c3ccc(C(F)(F)F)cc3F)CC2)C1 [Example 272, {1-{1-[2-fluoro-4-(trifluoromethyl)benzoyl]piperidin-4-yl}-3-[3-(7H-pyrrolo[2,3-d]pyrimidin-4-yl)-1H-pyrrol-1-yl]azetidin-3-yl}acetonitrile] |
| 4.4 | ≤ 5 nM | ≤ 10 nM | N#CCC1(n2ccc(-c3ncnc4[nH]ccc34)c2)CN(C2CCN(C(=O)c3cc(C(F)(F)F)ccc3F)CC2)C1 [Example 273, {1-{1-[2-fluoro-5-(trifluoromethyl)benzoyl]piperidin-4-yl}-3-[3-(7H-pyrrolo[2,3-d]pyrimidin-4-yl)-1H-pyrrol-1-yl]azetidin-3-yl}acetonitrile] |
| 9.0 | ≤ 5 nM | 10 to 50 nM | N#CCC1(n2ccc(-c3ncnc4[nH]ccc34)c2)CN(C2CCN(C(=O)c3cc(F)cc(C(F)(F)F)c3)CC2)C1 [Example 274, {1-{1-[3-fluoro-5-(trifluoromethyl)benzoyl]piperidin-4-yl}-3-[3-(7H-pyrrolo[2,3-d]pyrimidin-4-yl)-1H-pyrrol-1-yl]azetidin-3-yl}acetonitrile] |
| 9.8 | ≤ 5 nM | 10 to 50 nM | N#CCC1(n2ccc(-c3ncnc4[nH]ccc34)c2)CN(C2CCN(C(=O)c3ccc(F)c(F)c3)CC2)C1 [Example 277, {1-[1-(3,4-difluorobenzoyl)piperidin-4-yl]-3-[3-(7H-pyrrolo[2,3-d]pyrimidin-4-yl)-1H-pyrrol-1-yl]azetidin-3-yl}acetonitrile] |
| 5.6 | ≤ 5 nM | ≤ 10 nM | N#CCC1(n2ccc(-c3ncnc4[nH]ccc34)c2)CN(C2CCN(C(=O)c3cc(F)ccc3F)CC2)C1 [Example 278, {1-[1-(2,5-difluorobenzoyl)piperidin-4-yl]-3-[3-(7H-pyrrolo[2,3-d]pyrimidin-4-yl)-1H-pyrrol-1-yl]azetidin-3-yl}acetonitrile] |
| 7.5 | ≤ 5 nM | ≤ 10 nM | N#CCC1(n2ccc(-c3ncnc4[nH]ccc34)c2)CN(C2CCN(C(=O)c3ccc(F)c(F)c3F)CC2)C1 [Example 280, {3-[3-(7H-pyrrolo[2,3-d]pyrimidin-4-yl)-1H-pyrrol-1-yl]-1-[1-(2,3,4-trifluorobenzoyl)piperidin-4-yl]azetidin-3-yl}acetonitrile] |
| 35.6 | ≤ 5 nM | 50 to 100 nM | N#CCC1(n2ccc(-c3ncnc4[nH]ccc34)c2)CN(C2CCN(C(=O)Nc3ccc(F)cc3C(F)(F)F)CC2)C1 [Example 283, 4-{3-(Cyanomethyl)-3-[3-(7H-pyrrolo[2,3-d]pyrimidin-4-yl)-1H-pyrrol-1-yl]azetidin-1-yl}-N-[4-fluoro-2-(trifluoromethyl)phenyl]piperidine-1-carboxamide] |
| 5.8 | ≤ 5 nM | 10 to 50 nM | COc1ncccc1NC(=O)N1CCC(N2CC(CC#N)(n3ccc(-c4ncnc5[nH]ccc45)c3)C2)CC1 [Example 284, 4-{3-(cyanomethyl)-3-[3-(7H-pyrrolo[2,3-d]pyrimidin-4-yl)-1H-pyrrol-1-yl]azetidin-1-yl}-N-(2-methoxypyridin-3-yl)piperidine-1-carboxamide] |
| 13.1 | ≤ 5 nM | 10 to 50 nM | N#CCC1(n2ccc(-c3ncnc4[nH]ccc34)c2)CN(C2CCN(C(=O)Nc3ccc(F)cc3F)CC2)C1 [Example 286, 4-{3-(cyanomethyl)-3-[3-(7H-pyrrolo[2,3-d]pyrimidin-4-yl)-1H-pyrrol-1-yl]azetidin-1-yl}-N-(2,4-difluorophenyl)piperidine-1-carboxamide] |
| 6.7 | 5 to 20 nM | 50 to 100 nM | N#CCC1(n2ccc(-c3ncnc4[nH]ccc34)c2)CN(C2CCN(C(=O)Nc3ccccc3C#N)CC2)C1 [Example 287, 4-{3-(cyanomethyl)-3-[3-(7H-pyrrolo[2,3-d]pyrimidin-4-yl)-1H-pyrrol-1-yl]azetidin-1-yl}-N-(2-cyanophenyl)piperidine-1-carboxamide] |
